Measured values as given in PubChem BioAssay (NCI).
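Dose response: 5 concentrations. Exposure: 48 h. Format: 96-well plates. Endpoint: linear interpolation; highest concentration if not reached. GI50 is the concentration that inhibits growth by half. TGI: total growth inhibition.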

Assays:
Test in all cases: inhibition of tumour cell growth, NCI panel, 48 h
MALME-3M melanoma = system: MALME-3M melanoma
NCI/ADR-RES ovarian = system: NCI/ADR-RES ovarian
RXF 393 renal = system: RXF 393 renal
IGROV1 ovarian = system: IGROV1 ovarian
SNB-19 CNS = system: SNB-19 CNS
KM12 colon = system: KM12 colon
HOP-62 NSCLC = system: HOP-62 NSCLC
ACHN renal = system: ACHN renal
EKVX NSCLC = system: EKVX NSCLC
SF-268 CNS = system: SF-268 CNS
M14 melanoma = system: M14 melanoma
A549 NSCLC = system: A549 NSCLC
HCT-15 colon = system: HCT-15 colon
MOLT-4 leukemia = system: MOLT-4 leukemia
BT-549 breast = system: BT-549 breast
COLO 205 colon = system: COLO 205 colon
PC-3 prostate = system: PC-3 prostate
A498 renal = system: A498 renal
U251 CNS = system: U251 CNS
UO-31 renal = system: UO-31 renal
SNB-75 CNS = system: SNB-75 CNS
CCRF-CEM leukemia = system: CCRF-CEM leukemia
NCI-H23 lung = system: NCI-H23 lung
SK-MEL-28 melanoma = system: SK-MEL-28 melanoma
SN12C renal = system: SN12C renal
TK-10 renal = system: TK-10 renal
HS 578T breast = system: HS 578T breast
SK-OV-3 ovarian = system: SK-OV-3 ovarian
SF-539 CNS = system: SF-539 CNS
786-0 renal = system: 786-0 renal
HOP-92 NSCLC = system: HOP-92 NSCLC
DU-145 prostate = system: DU-145 prostate
SK-MEL-5 melanoma = system: SK-MEL-5 melanoma
MCF7 breast = system: MCF7 breast
NCI-H460 lung = system: NCI-H460 lung
RPMI-8226 leukemia = system: RPMI-8226 leukemia
SW-620 colon = system: SW-620 colon
HL-60(TB) leukemia = system: HL-60(TB) leukemia
SR leukemia = system: SR leukemia
SK-MEL-2 melanoma = system: SK-MEL-2 melanoma
OVCAR-8 ovarian = system: OVCAR-8 ovarian
K-562 leukemia = system: K-562 leukemia
MDA-MB-435 = system: MDA-MB-435
NCI-H522 lung = system: NCI-H522 lung
T-47D breast = system: T-47D breast
HCT-116 colon = system: HCT-116 colon
OVCAR-4 ovarian = system: OVCAR-4 ovarian
NCI-H226 lung = system: NCI-H226 lung
CAKI-1 renal = system: CAKI-1 renal
OVCAR-5 ovarian = system: OVCAR-5 ovarian
HCC-2998 colon = system: HCC-2998 colon
HT29 colon = system: HT29 colon
MDA-MB-231 breast = system: MDA-MB-231 breast
UACC-257 melanoma = system: UACC-257 melanoma
SF-295 CNS = system: SF-295 CNS

CCCCNNC(=O)c1ccc(-c2cccc(F)c2F)cc1
GI50 (MALME-3M melanoma): 0.613 µM
TGI (MALME-3M melanoma): 5.28 µM
GI50 (NCI/ADR-RES ovarian): 0.999 µM
TGI (NCI/ADR-RES ovarian): 6.67 µM
GI50 (RXF 393 renal): 1.31 µM
TGI (RXF 393 renal): 3.67 µM
GI50 (IGROV1 ovarian): 2.02 µM
TGI (IGROV1 ovarian): 11.1 µM
GI50 (SNB-19 CNS): 3.23 µM
TGI (SNB-19 CNS): 19.8 µM
GI50 (KM12 colon): 4.04 µM
TGI (KM12 colon): 16.1 µM
GI50 (HOP-62 NSCLC): 3.09 µM
TGI (HOP-62 NSCLC): > 100 µM
GI50 (ACHN renal): 2.3 µM
TGI (ACHN renal): 7.06 µM
GI50 (EKVX NSCLC): 3.32 µM
TGI (EKVX NSCLC): 56.3 µM
GI50 (SF-268 CNS): 4.26 µM
TGI (SF-268 CNS): 18.7 µM
GI50 (M14 melanoma): 2.93 µM
TGI (M14 melanoma): 20.8 µM
GI50 (A549 NSCLC): 3.36 µM
TGI (A549 NSCLC): 18.4 µM
GI50 (HCT-15 colon): 3.08 µM
TGI (HCT-15 colon): 17 µM
GI50 (MOLT-4 leukemia): 2.49 µM
TGI (MOLT-4 leukemia): > 100 µM
GI50 (BT-549 breast): 5.11 µM
TGI (BT-549 breast): > 100 µM
GI50 (COLO 205 colon): 1.82 µM
TGI (COLO 205 colon): 5.56 µM
GI50 (PC-3 prostate): 3.56 µM
TGI (PC-3 prostate): 27.4 µM
GI50 (A498 renal): 1.04 µM
TGI (A498 renal): 2.92 µM
GI50 (U251 CNS): 2.58 µM
TGI (U251 CNS): 15.2 µM
GI50 (UO-31 renal): 1.78 µM
TGI (UO-31 renal): 7.25 µM
GI50 (SNB-75 CNS): 0.894 µM
TGI (SNB-75 CNS): 8.29 µM
GI50 (CCRF-CEM leukemia): 3.08 µM
TGI (CCRF-CEM leukemia): > 100 µM
GI50 (NCI-H23 lung): 2.39 µM
TGI (NCI-H23 lung): 18.2 µM
GI50 (SK-MEL-28 melanoma): 2.75 µM
TGI (SK-MEL-28 melanoma): 63.7 µM
GI50 (SN12C renal): 4.29 µM
TGI (SN12C renal): 79.9 µM
GI50 (TK-10 renal): 0.959 µM
TGI (TK-10 renal): 7.9 µM
GI50 (HS 578T breast): 2.44 µM
TGI (HS 578T breast): 82.4 µM
GI50 (SK-OV-3 ovarian): 4.12 µM
TGI (SK-OV-3 ovarian): 42.5 µM
GI50 (SF-539 CNS): 3.19 µM
TGI (SF-539 CNS): 65.6 µM
GI50 (786-0 renal): 3.75 µM
TGI (786-0 renal): 18.9 µM
GI50 (HOP-92 NSCLC): 1.04 µM
TGI (HOP-92 NSCLC): 5.67 µM
GI50 (DU-145 prostate): 2.43 µM
TGI (DU-145 prostate): 43.8 µM
GI50 (SK-MEL-5 melanoma): 1.8 µM
TGI (SK-MEL-5 melanoma): 3.71 µM
GI50 (MCF7 breast): 0.776 µM
TGI (MCF7 breast): 17.5 µM
GI50 (NCI-H460 lung): 2.71 µM
TGI (NCI-H460 lung): 21.3 µM
GI50 (RPMI-8226 leukemia): 0.8 µM
TGI (RPMI-8226 leukemia): 7.88 µM
GI50 (SW-620 colon): 2.92 µM
TGI (SW-620 colon): 12.5 µM
GI50 (HL-60(TB) leukemia): 1.07 µM
TGI (HL-60(TB) leukemia): 16.1 µM
GI50 (SR leukemia): 1.77 µM
TGI (SR leukemia): 57.3 µM
GI50 (SK-MEL-2 melanoma): 3.1 µM
TGI (SK-MEL-2 melanoma): 53.6 µM
GI50 (OVCAR-8 ovarian): 1.49 µM
TGI (OVCAR-8 ovarian): > 100 µM
GI50 (K-562 leukemia): 1.29 µM
TGI (K-562 leukemia): > 100 µM
GI50 (MDA-MB-435): 2.23 µM
TGI (MDA-MB-435): 8.25 µM
GI50 (NCI-H522 lung): 2.3 µM
TGI (NCI-H522 lung): 20.7 µM
GI50 (T-47D breast): 1.14 µM
TGI (T-47D breast): > 100 µM
GI50 (HCT-116 colon): 2.57 µM
TGI (HCT-116 colon): 11.4 µM
GI50 (OVCAR-4 ovarian): 4.03 µM
TGI (OVCAR-4 ovarian): > 100 µM
GI50 (NCI-H226 lung): 2.58 µM
TGI (NCI-H226 lung): 17.1 µM
GI50 (CAKI-1 renal): 2.76 µM
TGI (CAKI-1 renal): 6.02 µM
GI50 (OVCAR-5 ovarian): 2.02 µM
TGI (OVCAR-5 ovarian): 16.7 µM
GI50 (HCC-2998 colon): 1.48 µM
TGI (HCC-2998 colon): 4.11 µM
GI50 (HT29 colon): 2.58 µM
TGI (HT29 colon): > 100 µM
GI50 (MDA-MB-231 breast): 5.49 µM
TGI (MDA-MB-231 breast): 34.3 µM
GI50 (UACC-257 melanoma): 1.39 µM
TGI (UACC-257 melanoma): 31.3 µM
GI50 (SF-295 CNS): 2 µM
TGI (SF-295 CNS): 4.78 µM
